From the supplement of paper PMC10307832

What was measured:
Assay in all cases: relative viability (nuclei count vs DMSO), 5 days (fraction); higher = more cells survive
ABC-1 = test system: ABC-1
Outline: (§1)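 Each reported value is a median over duplicate plates. It expresses relative viability: treated-well nuclei count divided by vehicle-well nuclei count. Lung cancer cell lines in 1536-well plates were dosed by pin tool a day after seeding, alone with one drug or with a fixed anchor-drug dose plus five library-drug doses (not always all listed) in √10 steps, and nuclei were counted after 5 days.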

COR-L23 = test system: COR-L23
Outline: as §1

EPLC-272H = test system: EPLC-272H
Outline: as §1

HARA = test system: HARA
Outline: as §1

HCC-15 = test system: HCC-15
Outline: as §1

HCC-78 = test system: HCC-78
Outline: as §1

LC-2-ad = test system: LC-2-ad
Outline: as §1

LU99A = test system: LU99A
Outline: as §1

NCI-H1355 = test system: NCI-H1355
Outline: as §1

NCI-H1651 = test system: NCI-H1651
Outline: as §1

NCI-H1915 = test system: NCI-H1915
Outline: as §1

NCI-H1993 = test system: NCI-H1993
Outline: as §1

## NC(=O)Nc1cc(-c2cccc(F)c2)sc1C(=O)N[C@H]1CCCNC1 [AZD7762] + Cc1nc(Nc2ncc(C(=O)Nc3c(C)cccc3Cl)s2)cc(N2CCN(CCO)CC2)n1 [Dasatinib] (partner 0.075 µM)
ABC-1; first compound 0.01 µM
  relative viability: 0.618
ABC-1; first compound 0.03162 µM
  relative viability: 0.586
ABC-1; first compound 0.1 µM
  relative viability: 0.473
ABC-1; first compound 0.3162 µM
  relative viability: 0.413
ABC-1; first compound 1 µM
  relative viability: 0.273
COR-L23; first compound 0.01 µM
  relative viability: 0.477
COR-L23; first compound 0.03162 µM
  relative viability: 0.528
COR-L23; first compound 0.1 µM
  relative viability: 0.515
COR-L23; first compound 0.3162 µM
  relative viability: 0.313
COR-L23; first compound 1 µM
  relative viability: 0.0945
EPLC-272H; first compound 0.01 µM
  relative viability: 0.338
EPLC-272H; first compound 0.03162 µM
  relative viability: 0.384
EPLC-272H; first compound 0.1 µM
  relative viability: 0.365
EPLC-272H; first compound 0.3162 µM
  relative viability: 0.3
EPLC-272H; first compound 1 µM
  relative viability: 0.0994
HARA; first compound 0.01 µM
  relative viability: 0.306
HARA; first compound 0.03162 µM
  relative viability: 0.304
HARA; first compound 0.1 µM
  relative viability: 0.275
HARA; first compound 0.3162 µM
  relative viability: 0.286
HARA; first compound 1 µM
  relative viability: 0.164
HCC-15; first compound 0.01 µM
  relative viability: 0.582
HCC-15; first compound 0.03162 µM
  relative viability: 0.592
HCC-15; first compound 0.1 µM
  relative viability: 0.592
HCC-15; first compound 0.3162 µM
  relative viability: 0.561
HCC-15; first compound 1 µM
  relative viability: 0.52
HCC-78; first compound 0.01 µM
  relative viability: 0.409
HCC-78; first compound 0.03162 µM
  relative viability: 0.606
HCC-78; first compound 0.1 µM
  relative viability: 0.451
HCC-78; first compound 0.3162 µM
  relative viability: 0.353
HCC-78; first compound 1 µM
  relative viability: 0.232
LC-2-ad; first compound 0.01 µM
  relative viability: 0.596
LC-2-ad; first compound 0.03162 µM
  relative viability: 0.513
LC-2-ad; first compound 0.1 µM
  relative viability: 0.374
LC-2-ad; first compound 0.3162 µM
  relative viability: 0.343
LC-2-ad; first compound 1 µM
  relative viability: 0.377
LU99A; first compound 0.01 µM
  relative viability: 0.551
LU99A; first compound 0.03162 µM
  relative viability: 0.573
LU99A; first compound 0.1 µM
  relative viability: 0.51
LU99A; first compound 0.3162 µM
  relative viability: 0.419
LU99A; first compound 1 µM
  relative viability: 0.202
NCI-H1355; first compound 0.01 µM
  relative viability: 0.668
NCI-H1355; first compound 0.03162 µM
  relative viability: 0.849
NCI-H1355; first compound 0.1 µM
  relative viability: 0.739
NCI-H1355; first compound 0.3162 µM
  relative viability: 0.681
NCI-H1355; first compound 1 µM
  relative viability: 0.506
NCI-H1651; first compound 0.01 µM
  relative viability: 0.375
NCI-H1651; first compound 0.03162 µM
  relative viability: 0.358
NCI-H1651; first compound 0.1 µM
  relative viability: 0.386
NCI-H1651; first compound 0.3162 µM
  relative viability: 0.22
NCI-H1651; first compound 1 µM
  relative viability: 0.174
NCI-H1915; first compound 0.01 µM
  relative viability: 0.32
NCI-H1915; first compound 0.03162 µM
  relative viability: 0.319
NCI-H1915; first compound 0.1 µM
  relative viability: 0.327
NCI-H1915; first compound 0.3162 µM
  relative viability: 0.335
NCI-H1915; first compound 1 µM
  relative viability: 0.272
NCI-H1993; first compound 0.01 µM
  relative viability: 0.629
NCI-H1993; first compound 0.03162 µM
  relative viability: 0.599
